Source: paper PMC10101059, “Rational Design of Stapled Antimicrobial Peptides to Enhance Stability and In Vivo Potency against Polymicrobial Sepsis” (Microbiology Spectrum, 2023)
Converted amounts (≈) assume the structure as drawn. Like-named read-outs stand apart in the source and are kept apart here. Peptide text beside a SMILES is read from it.

Experiments:
[1] = tested on: Acinetobacter baumannii; test: microbe, parasite or virus in culture; type: cell-based
Description: The antimicrobial assay was performed according to a modified National Committee for Clinical Laboratory Standards (NCCLS) protocol ([41], [42]). Briefly, 5 × 10^5 CFU/mL bacterial cells were treated with various peptide concentrations and incubated at 37 ± 2°C for 16 to 20 h. The lowest concentration with clear wells was recorded as the MIC for each test molecule. The clear wells were further plated in Mueller-Hinton agar (MHA) plates, followed by incubation overnight at 37 ± 2°C. After plating, the lowest concentration at which no growth was observed was recorded as the MBC. For the serum sensitivity assay, the antimicrobial activity of the peptides was tested in medium containing 50% human serum ([43], [44]). The antimicrobial assay was performed in the presence of physiological ions and glucose. The test media were supplemented with MgCl2 (1 mM), CaCl2 (2 mM), NaCl (150 mM), KCl (4.5 mM), NH4Cl (6 μM) ([45], [46]), or glucose (0.2%) ([47]), followed by routine antimicrobial assay as described previously. For the pH sensitivity assay, the antimicrobial assay was performed in media adjusted to pH values ranging from 4 to 12. To estimate the effects of temperature on antimicrobial activity, the peptide was incubated for 1 h at temperatures ranging from 40 to 100°C ([48]), followed by the antimicrobial assay as described above.

[2] = tested on: NDM-1 Klebsiella pneumoniae; test: microbe, parasite or virus in culture; type: cell-based; conditions: NDM-1
Description: (§1) The antimicrobial assay was performed according to a modified National Committee for Clinical Laboratory Standards (NCCLS) protocol ([41], [42]). Briefly, 5 × 10^5 CFU/mL bacterial cells were treated with various peptide concentrations and incubated at 37 ± 2°C for 16 to 20 h. The lowest concentration with clear wells was recorded as the MIC for each test molecule. The clear wells were further plated in Mueller-Hinton agar (MHA) plates, followed by incubation overnight at 37 ± 2°C. After plating, the lowest concentration at which no growth was observed was recorded as the MBC. For the serum sensitivity assay, the antimicrobial activity of the peptides was tested in medium containing 50% human serum ([43], [44]).

[3] = tested on: Pseudomonas aeruginosa; test: microbe, parasite or virus in culture; type: cell-based
Description: as §1

[4] = tested on: Enterobacter aerogenes; test: microbe, parasite or virus in culture; type: cell-based
Description: as §1

[5] = tested on: Escherichia coli; test: microbe, parasite or virus in culture; type: cell-based
Description: as §1

[6] = tested on: MDR A. baumannii 2997; test: microbe, parasite or virus in culture; type: cell-based, Acinetobacter baumannii; conditions: MDR 2997
Description: as §1

[7] = tested on: MDR A. baumannii 1702; test: microbe, parasite or virus in culture; type: cell-based, Acinetobacter baumannii; conditions: MDR 1702
Description: as §1

[8] = tested on: MDR A. baumannii 1033; test: microbe, parasite or virus in culture; type: cell-based, Acinetobacter baumannii; conditions: MDR 1033
Description: as §1

[9] = tested on: MDR A. baumannii 3618; test: microbe, parasite or virus in culture; type: cell-based, Acinetobacter baumannii; conditions: MDR 3618
Description: as §1

[10] = tested on: MDR A. baumannii 921; test: microbe, parasite or virus in culture; type: cell-based, Acinetobacter baumannii; conditions: MDR 921
Description: as §1

[11] = tested on: MDR A. baumannii 14B0091; test: microbe, parasite or virus in culture; type: cell-based, Acinetobacter baumannii; conditions: MDR 14B0091
Description: as §1

[12] = tested on: MDR A. baumannii 2962; test: microbe, parasite or virus in culture; type: cell-based, Acinetobacter baumannii; conditions: MDR 2962
Description: as §1

[13] = tested on: MDR A. baumannii 2998; test: microbe, parasite or virus in culture; type: cell-based, Acinetobacter baumannii; conditions: MDR 2998
Description: as §1

[14] = tested on: MDR A. baumannii 2088; test: microbe, parasite or virus in culture; type: cell-based, Acinetobacter baumannii; conditions: MDR 2088
Description: as §1

[15] = tested on: MDR A. baumannii 1019; test: microbe, parasite or virus in culture; type: cell-based, Acinetobacter baumannii; conditions: MDR 1019
Description: as §1

[16] = tested on: MDR A. baumannii 1607; test: microbe, parasite or virus in culture; type: cell-based, Acinetobacter baumannii; conditions: MDR 1607
Description: as §1

[17] = tested on: MDR A. baumannii 2982; test: microbe, parasite or virus in culture; type: cell-based, Acinetobacter baumannii; conditions: MDR 2982
Description: as §1

[18] = tested on: Staphylococcus aureus; type: cell-based
Description: as §1

CC[C@H](C)[C@H](NC(=O)[C@H](C)NC(=O)[C@H](CCCCN)NC(=O)CNC(=O)[C@H](C)NC(=O)[C@H](CO)NC(=O)[C@H](Cc1ccccc1)NC(=O)[C@H](CC(C)C)NC(=O)CNC(=O)CNC(=O)[C@@H](NC(=O)[C@@H](NC(=O)[C@H](Cc1c[nH]cn1)NC(=O)[C@H](Cc1c[nH]cn1)NC(=O)[C@@H](NC(=O)[C@@H](N)Cc1ccccc1)[C@@H](C)CC)[C@@H](C)CC)[C@@H](C)CC)C(=O)N[C@@H](Cc1c[nH]cn1)C(=O)N[C@@H](CCCNC(=N)N)C(=O)N[C@@H](CC(C)C)C(=O)N[C@H](C(=O)N[C@@H](CCCNC(=N)N)C(=O)N[C@@H](CCCNC(=N)N)C(=O)N[C@@H](CCCNC(=N)N)C(=O)N[C@@H](CCCNC(=N)N)C(=O)N[C@@H](CCCNC(=N)N)C(=O)O)[C@@H](C)CC [TP4, tilapia piscidin 4] (H-FIHHIIGGLFSAGKAIHRLIRRRRR-OH)
MBC ([1]; pH 6): 3.13−6.25 μM | MIC ([1]; pH 6): 3.13−6.25 μM | MBC ([1]; pH 7.4, read-out: MBC): 3.13 µM (≈ 9.33 µg/mL) | MIC ([1]; pH 7.4, read-out: MIC): 3.13 µM (≈ 9.33 µg/mL) | MBC ([1]; pH 8): 1.56−3.13 μM | MIC ([1]; pH 8): 1.56−3.13 μM | MBC ([1]; pH 10, read-out: MBC): 0.78 µM (≈ 2.33 µg/mL) | MIC ([1]; pH 10, read-out: MIC): 0.78 µM (≈ 2.33 µg/mL) | MBC [2]: 6.25 µM (≈ 18.6 µg/mL) | MIC [2]: 6.25 µM (≈ 18.6 µg/mL) | MBC ([3]; read-out: MBC): 12.5 µM (≈ 37.3 µg/mL) | MIC ([3]; read-out: MIC): 12.5 µM (≈ 37.3 µg/mL) | MBC [4]: 0.78 µM (≈ 2.33 µg/mL) | MIC [4]: 0.78 µM (≈ 2.33 µg/mL) | MBC [5]: 3.13 µM (≈ 9.33 µg/mL) | MIC [5]: 3.13 µM (≈ 9.33 µg/mL) | MBC ([6]; read-out: MBC): <1.56 µM | MIC ([6]; read-out: MIC): <1.56 µM | MBC ([7]; read-out: MBC): <1.56 µM | MIC ([7]; read-out: MIC): <1.56 µM | MBC ([8]; read-out: MBC): 6.25 µM (≈ 18.6 µg/mL) | MIC ([8]; read-out: MIC): <1.56 µM | MBC [9]: 6.25 µM (≈ 18.6 µg/mL) | MIC [9]: 3.13 µM (≈ 9.33 µg/mL) | MBC [10]: <1.56 µM | MIC [10]: <1.56 µM | MBC [11]: <1.56 µM | MIC [11]: <1.56 µM | MBC [12]: <1.56 µM | MIC [12]: <1.56 µM | MIC [13]: <1.56 µM | MBC ([13]; read-out: MBC): <1.56 µM | MBC ([14]; read-out: MBC): <1.56 µM | MIC ([14]; read-out: MIC): <1.56 µM | MBC [15]: <1.56 µM | MIC [15]: <1.56 µM | MIC [16]: <1.56 µM | MBC ([16]; read-out: MBC): <1.56 µM | MBC [17]: 3.13 µM (≈ 9.33 µg/mL) | MIC [17]: 3.13 µM (≈ 9.33 µg/mL) | MBC [18]: 1.56 µM (≈ 4.65 µg/mL) | MIC [18]: 1.56 µM (≈ 4.65 µg/mL)
